Reference: patent US6355799B1, “Substituted benzene compounds, process for their preparation, and herbicidal and defoliant compositions containing them” (ISK Americas Incorporated, priority 1997, dated 2002)

Tests used:
Type in all cases: in vivo
[1] = tested on: field corn (Zea mays L., var. Dekalb 535, CORN); experiment: Post-emerge test, crop safety; settings: rating scale 0-100 (0 no damage, 100 complete death), 14 days after application
Summary of the method: (§1)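 Compounds in acetone were track-sprayed at 15-1000 g ai/ha (187 l/ha) on sandy loam pots: pre-emerge one day after seeding, post-emerge at 2-3 leaf stage with 0.25% v/v non-ionic surfactant. Phytotoxicity was rated 14 days later on a 0 (no damage) to 100 (complete death) scale.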

[2] = tested on: upland rice (Oryza sp., var. Tebonnet, RICE); experiment: Post-emerge test, crop safety; settings: rating scale 0-100 (0 no damage, 100 complete death), 14 days after application
Summary of the method: as §1

[3] = tested on: ivyleaf morningglory (Ipomoea hederacea, IPOHE); experiment: Post-emerge test, greenhouse herbicide activity screening; settings: rating scale 0-100 (0 no damage, 100 complete death), 14 days after application
Summary of the method: (§2)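 Sandy loam pots; pre-emerge: sown 1 d pre-spray, surface-watered after, then bottom-watered. Post-emerge: sown 8–21 d before, 2–3 leaf stage, + 0.25% v/v NIS, bottom-watered. Acetone, 187 l/ha track spray, 15–1000 g ai/ha. 0–100 injury score, day 14.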

[4] = tested on: green foxtail (Setaria viridis, SETVI); experiment: as above; settings: rating scale 0-100 (0 no damage, 100 complete death), 14 days after application
Summary of the method: as §2

[5] = tested on: redroot pigweed (Amaranthus retroflexus, AMARE); experiment: as above; settings: rating scale 0-100 (0 no damage, 100 complete death), 14 days after application
Summary of the method: as §2

[6] = tested on: velvetleaf (Abutilon theophrasti, ABUTH); experiment: as above; settings: rating scale 0-100 (0 no damage, 100 complete death), 14 days after application
Summary of the method: as §2

[7] = tested on: lambsquarters (Chenopodium album, CHEAL); experiment: as above; settings: rating scale 0-100 (0 no damage, 100 complete death), 14 days after application
Summary of the method: as §2

[8] = tested on: barnyardgrass (Echinochloa crus-galli, ECHCG); experiment: as above; settings: rating scale 0-100 (0 no damage, 100 complete death), 14 days after application
Summary of the method: as §2

[9] = tested on: johnsongrass (Sorghum halepense, SORHA); experiment: as above; settings: rating scale 0-100 (0 no damage, 100 complete death), 14 days after application
Summary of the method: as §2

[10] = tested on: large crabgrass (Digitaria sanguinalis, DIGSA); experiment: as above; settings: rating scale 0-100 (0 no damage, 100 complete death), 14 days after application
Summary of the method: as §2

[11] = tested on: sicklepod (Cassia obtusifolia, CASOB); experiment: as above; settings: rating scale 0-100 (0 no damage, 100 complete death), 14 days after application
Summary of the method: as §2

[12] = tested on: ivyleaf morningglory (Ipomoea hederacea, IPOHE); experiment: Pre-emerge test, greenhouse herbicide activity screening; settings: rating scale 0-100, 14 days after application
Summary of the method: as §1

[13] = tested on: green foxtail (Setaria viridis, SETVI); experiment: as above; settings: rating scale 0-100, 14 days after application
Summary of the method: as §1

[14] = tested on: velvetleaf (Abutilon theophrasti, ABUTH); experiment: as above; settings: rating scale 0-100, 14 days after application
Summary of the method: as §1

[15] = tested on: lambsquarters (Chenopodium album, CHEAL); experiment: as above; settings: rating scale 0-100, 14 days after application
Summary of the method: as §1

[16] = tested on: barnyardgrass (Echinochloa crus-galli, ECHCG); experiment: as above; settings: rating scale 0-100, 14 days after application
Summary of the method: as §1

[17] = tested on: johnsongrass (Sorghum halepense, SORHA); experiment: as above; settings: rating scale 0-100, 14 days after application
Summary of the method: as §1

[18] = tested on: large crabgrass (Digitaria sanguinalis, DIGSA); experiment: as above; settings: rating scale 0-100, 14 days after application
Summary of the method: as §1

[19] = tested on: sicklepod (Cassia obtusifolia, CASOB); experiment: as above; settings: rating scale 0-100, 14 days after application
Summary of the method: as §1

[20] = tested on: field corn (Zea mays L., var. Dekalb 535, CORN); experiment: Pre-emerge test, crop safety; settings: rating scale 0-100, 14 days after application
Summary of the method: (§3)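 Compounds in acetone were track-sprayed at 187 l/ha, 15–1000 g ai/ha, onto sandy loam pots. Pre-emerge seeds were sown one day before spraying, with surface watering afterwards. Post-emerge plants were at the 2–3 leaf stage and sprayed with 0.25% v/v non-ionic surfactant. Injury was rated 0–100 at 14 days.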

[21] = tested on: upland rice (Oryza sp., var. Tebonnet, RICE); experiment: Pre-emerge test, crop safety; settings: rating scale 0-100, 14 days after application
Summary of the method: as §3

[22] = tested on: redroot pigweed (Amaranthus retroflexus, AMARE); experiment: Pre-emerge test, greenhouse herbicide activity screening; settings: rating scale 0-100, 14 days after application
Summary of the method: as §3

## COc1c(Cl)cc(F)c(-n2c(=O)cc(C(F)(F)F)n(C)c2=O)c1CC(Cl)C(=O)OCC(Br)CBr (single isomer, unassigned) [14-30]
[1]; Rate 63 g ai/ha
  Post-emerge phytotoxicity rating CORN (crop damage): 10
[1]; Rate 250 g ai/ha
  Post-emerge phytotoxicity rating CORN (crop damage): 20
[2]; Rate 63 g ai/ha
  Post-emerge phytotoxicity rating RICE (crop damage): 0
[2]; Rate 250 g ai/ha
  Post-emerge phytotoxicity rating RICE (crop damage): 0
[3]; Rate 63 g ai/ha
  Post-emerge Herbicidal Activity, phytotoxicity rating IPOHE: 0
[3]; Rate 250 g ai/ha
  Post-emerge Herbicidal Activity, phytotoxicity rating IPOHE: 50
[4]; Rate 63 g ai/ha
  Post-emerge Herbicidal Activity, phytotoxicity rating SETVI: 0
[4]; Rate 250 g ai/ha
  Post-emerge Herbicidal Activity, phytotoxicity rating SETVI: 30
[5]; Rate 63 g ai/ha
  Post-emerge Herbicidal Activity, phytotoxicity rating AMARE: 70
[5]; Rate 250 g ai/ha
  Post-emerge Herbicidal Activity, phytotoxicity rating AMARE: 100
[6]; Rate 63 g ai/ha
  Post-emerge Herbicidal Activity, phytotoxicity rating ABUTH: 60
[6]; Rate 250 g ai/ha
  Post-emerge Herbicidal Activity, phytotoxicity rating ABUTH: 100
[7]; Rate 63 g ai/ha
  Post-emerge Herbicidal Activity, phytotoxicity rating CHEAL: 50
[7]; Rate 250 g ai/ha
  Post-emerge Herbicidal Activity, phytotoxicity rating CHEAL: 100
[8]; Rate 63 g ai/ha
  Post-emerge Herbicidal Activity, phytotoxicity rating ECHCG: 100
[8]; Rate 250 g ai/ha
  Post-emerge Herbicidal Activity, phytotoxicity rating ECHCG: 100
[9]; Rate 63 g ai/ha
  Post-emerge Herbicidal Activity, phytotoxicity rating SORHA: 0
[9]; Rate 250 g ai/ha
  Post-emerge Herbicidal Activity, phytotoxicity rating SORHA: 50
[10]; Rate 63 g ai/ha
  Post-emerge Herbicidal Activity, phytotoxicity rating DIGSA: 60
[10]; Rate 250 g ai/ha
  Post-emerge Herbicidal Activity, phytotoxicity rating DIGSA: 100
[11]; Rate 63 g ai/ha
  Post-emerge Herbicidal Activity, phytotoxicity rating CASOB: 20
[11]; Rate 250 g ai/ha
  Post-emerge Herbicidal Activity, phytotoxicity rating CASOB: 60
[12]; 63 g ai/ha
  Pre-emerge herbicidal activity, phytotoxicity rating IPOHE: 0
[12]; 250 g ai/ha
  Pre-emerge herbicidal activity, phytotoxicity rating IPOHE: 0
[13]; 63 g ai/ha
  Pre-emerge herbicidal activity, phytotoxicity rating SETVI: 0
[13]; 250 g ai/ha
  Pre-emerge herbicidal activity, phytotoxicity rating SETVI: 0
[14]; 63 g ai/ha
  Pre-emerge herbicidal activity, phytotoxicity rating ABUTH: 0
[14]; 250 g ai/ha
  Pre-emerge herbicidal activity, phytotoxicity rating ABUTH: 50
[15]; 63 g ai/ha
  Pre-emerge herbicidal activity, phytotoxicity rating CHEAL: 0
[15]; 250 g ai/ha
  Pre-emerge herbicidal activity, phytotoxicity rating CHEAL: 80
[16]; 63 g ai/ha
  Pre-emerge herbicidal activity, phytotoxicity rating ECHCG: 0
[16]; 250 g ai/ha
  Pre-emerge herbicidal activity, phytotoxicity rating ECHCG: 0
[17]; 63 g ai/ha
  Pre-emerge herbicidal activity, phytotoxicity rating SORHA: 0
[17]; 250 g ai/ha
  Pre-emerge herbicidal activity, phytotoxicity rating SORHA: 0
[18]; 63 g ai/ha
  Pre-emerge herbicidal activity, phytotoxicity rating DIGSA: 0
[18]; 250 g ai/ha
  Pre-emerge herbicidal activity, phytotoxicity rating DIGSA: 90
[19]; 63 g ai/ha
  Pre-emerge herbicidal activity, phytotoxicity rating CASOB: 0
[19]; 250 g ai/ha
  Pre-emerge herbicidal activity, phytotoxicity rating CASOB: 0
[20]; 63 g ai/ha
  Pre-emerge phytotoxicity rating, crop damage CORN: 0
[20]; 250 g ai/ha
  Pre-emerge phytotoxicity rating, crop damage CORN: 0
[21]; 63 g ai/ha
  Pre-emerge phytotoxicity rating, crop damage RICE: 0
[21]; 250 g ai/ha
  Pre-emerge phytotoxicity rating, crop damage RICE: 0
[22]; 63 g ai/ha
  Pre-emerge herbicidal activity, phytotoxicity rating AMARE: 70
[22]; 250 g ai/ha
  Pre-emerge herbicidal activity, phytotoxicity rating AMARE: 100
